Laboratory results from PMC7747014 (Journal of medicinal chemistry, 2015).
“Also recorded” adds a separate entry of the source. Where two headings read alike, the source gives them in different places.

Key:
Human recombinant Top1 [1] = biological target: T1, Human recombinant Top1 (Homo sapiens, UniProt P11387); test: Top1-mediated DNA cleavage assay; format: biochemical; details: for trapping of Top1 cleavage complexes at low concentration: 5 nM, dose-dependent gel (Figure 8)
T1 sequence (P11387 1-765): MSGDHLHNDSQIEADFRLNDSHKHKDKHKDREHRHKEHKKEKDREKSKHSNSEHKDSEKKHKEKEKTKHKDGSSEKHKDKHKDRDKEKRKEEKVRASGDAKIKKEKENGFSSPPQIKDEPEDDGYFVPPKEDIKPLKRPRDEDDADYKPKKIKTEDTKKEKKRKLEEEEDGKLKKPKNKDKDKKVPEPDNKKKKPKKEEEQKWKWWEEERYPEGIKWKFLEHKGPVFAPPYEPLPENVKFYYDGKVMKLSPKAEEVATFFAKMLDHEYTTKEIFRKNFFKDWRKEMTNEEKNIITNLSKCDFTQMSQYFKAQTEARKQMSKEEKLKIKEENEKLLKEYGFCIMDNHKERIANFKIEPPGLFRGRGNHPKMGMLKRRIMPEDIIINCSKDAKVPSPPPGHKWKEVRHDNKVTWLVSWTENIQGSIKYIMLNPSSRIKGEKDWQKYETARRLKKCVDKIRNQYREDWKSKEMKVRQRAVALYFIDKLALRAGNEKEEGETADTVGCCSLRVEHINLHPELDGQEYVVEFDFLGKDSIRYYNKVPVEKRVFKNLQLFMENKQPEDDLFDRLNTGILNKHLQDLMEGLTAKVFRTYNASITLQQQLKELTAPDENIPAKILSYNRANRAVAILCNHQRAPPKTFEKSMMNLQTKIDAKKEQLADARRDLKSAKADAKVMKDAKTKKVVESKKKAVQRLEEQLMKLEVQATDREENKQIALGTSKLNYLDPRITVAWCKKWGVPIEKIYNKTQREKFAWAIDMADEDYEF

[2] = biological target: T2, drug−Top1−DNA cleavage complexes (Homo sapiens, UniProt P11387); test: Kinetics of reversal assay of Top1-mediated DNA cleavage complexes; format: biochemical; details: for reversal of ternary cleavage complexes: common cleavage sites 70, 92, 97 and 119, forward reaction terminated with 0.35 M NaCl
T2 sequence (P11387 1-765): T1 sequence (P11387 1-765)

recombinant TDP1 [3] = biological target: T3, recombinant TDP1 (Homo sapiens, UniProt Q9NUW8); test: Gel-based assay measuring the inhibition of recombinant TDP1; format: biochemical; details: read-out: TDP1 inhibition; semiquantitative IC50 scale
T3 sequence (Q9NUW8 whole entry): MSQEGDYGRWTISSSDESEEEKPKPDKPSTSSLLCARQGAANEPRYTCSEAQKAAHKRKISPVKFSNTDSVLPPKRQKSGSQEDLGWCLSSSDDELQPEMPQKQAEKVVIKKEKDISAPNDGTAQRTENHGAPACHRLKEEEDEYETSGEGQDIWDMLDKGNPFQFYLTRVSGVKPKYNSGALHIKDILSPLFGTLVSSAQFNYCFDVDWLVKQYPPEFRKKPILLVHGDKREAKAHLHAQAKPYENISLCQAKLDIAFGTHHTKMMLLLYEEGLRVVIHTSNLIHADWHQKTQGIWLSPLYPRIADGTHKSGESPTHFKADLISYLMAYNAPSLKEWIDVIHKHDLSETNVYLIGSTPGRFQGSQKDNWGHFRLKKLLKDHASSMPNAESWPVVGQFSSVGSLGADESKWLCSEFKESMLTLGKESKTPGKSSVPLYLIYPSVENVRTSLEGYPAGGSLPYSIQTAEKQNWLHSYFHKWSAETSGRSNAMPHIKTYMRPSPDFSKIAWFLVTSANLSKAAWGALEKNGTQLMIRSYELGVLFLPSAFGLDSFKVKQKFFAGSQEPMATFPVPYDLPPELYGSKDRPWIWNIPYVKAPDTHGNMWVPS

CNS SF-539 = details: read-out: cytotoxicity (GI50 in μM) CNS SF-539; cited from earlier work
Human recombinant Top1 [4] = biological target: T1, Human recombinant Top1; details: graded relative to 1 μM camptothecin; cited from earlier work
lung HOP-62 = details: read-out: cytotoxicity (GI50 in μM) lung HOP-62; cited from earlier work
breast MCF7 = details: read-out: cytotoxicity (GI50 in μM) breast MCF7; cited from earlier work
melanoma UACC-62 = details: read-out: cytotoxicity (GI50 in μM) melanoma UACC-62; cited from earlier work
prostate DU-145 = details: read-out: cytotoxicity (GI50 in μM) prostate DU-145; cited from earlier work
recombinant TDP1 [5] = biological target: T3, recombinant TDP1; details: read-out: TDP1 inhibition; semiquantitative IC50 scale; cited from earlier work
colon HCT-116 = details: read-out: cytotoxicity (GI50 in μM) colon HCT-116; cited from earlier work
ovarian OVACAR-3 = details: read-out: cytotoxicity (GI50 in μM) ovarian OVACAR-3; cited from earlier work
renal SN12C = details: read-out: cytotoxicity (GI50 in μM) renal SN12C; cited from earlier work
[6] = tested on: 60 common human cancer cell lines (NCI-60); details: read-out: MGM; average GI50 across 60 cell lines; cited from earlier work

For `O=C1c2cc(O)ccc2-c2c1c1ccc([N+](=O)[O-])cc1c(=O)n2CCCBr` [Compound 68, 6-(3-Bromopropyl)-9-hydroxy-3-nitro-5H-indeno[1,2-c]-isoquinoline-5,11(6H)-dione], the “trapping of Top1 cleavage complexes at low concentration” value (Human recombinant Top1 [1]) was “trapped Top1 cleavage complexes at a concentration as low as 5 nM”, the Top1 cleavage (Human recombinant Top1 [1]; graded relative to 1 μM camptothecin) was “+++++” and the “reversal of ternary cleavage complexes” value [2] was “quite persistent but did reverse over time; also recorded: reversed slower than that of camptothecin”. For the same molecule, the “DNA alkylation / irreversible ternary cleavage complex” value ([2]; from decrease of cleavage bands over time) was “did not alkylate or form an irreversible ternary cleavage complex; also recorded: no evidence of DNA alkylation” and the IC50 (recombinant TDP1 [3]) was 37000 to 111000 nM.
In the case of `CC[C@@]1(O)C(=O)OCc2c1cc1n(c2=O)Cc2cc3ccccc3nc2-1` [Compound 1, camptothecin], the GI50 (CNS SF-539) is given as < 0.01 µM, the Top1 cleavage (Human recombinant Top1 [4]) is given as “++++” and the GI50 (lung HOP-62) is given as < 0.01 µM. The GI50 (breast MCF7) was < 0.01 µM, the “trapping of Top1 cleavage complexes at low concentration” value (Human recombinant Top1 [1]) was “lesser activity at that concentration” and the GI50 (melanoma UACC-62) was < 0.01 µM. The “reversal of ternary cleavage complexes” value [2] was “reversed much faster” and the GI50 (prostate DU-145) was < 0.01 µM.
For `COc1cc2c(cc1O)-c1c(c3cc(OC)c(OC)cc3c(=O)n1CCCN1CCOCC1)C2=O` [Compound 8], the GI50 (CNS SF-539) is listed as 0.28 µM, the GI50 (lung HOP-62) is listed as 0.18 µM and the GI50 (breast MCF7) is listed as 0.03 µM. The IC50 (recombinant TDP1 [5]) was 37000 to 111000 nM, the GI50 (melanoma UACC-62) was 0.07 µM and the GI50 (colon HCT-116) was 2.3 µM. The GI50 (prostate DU-145) was 0.2 µM, the GI50 (ovarian OVACAR-3) was 8.3 µM and the GI50 (renal SN12C) was 0.19 µM. The GI50 [6] was 3100 ± 300 nM.
